# Test results taken from EP4166560A1, “TRI-SUBSTITUTED TETRAHYDROFURANS AND USE THEREOF” (Consejo Superior de Investigaciones Cientificas, priority 2021, dated 2023).
# Several values for one entry are separate records, joined by “and”; a condition that tells them apart may be missing. Identical values can stand only once. Entries after “also recorded” stand apart in the source; their conditions may differ. Numbered stars: 1 amine (or outer) side, 2 acyl side, 3 side chain; on linkers, the order of the positions; unused ones are H or OH. Bridge positions count the residues as written; N and C are the ends. Square brackets hold non-standard residues; d marks the D form. Peptide text beside a SMILES is read from it. * marks the point of attachment. X1 = CC[C@H](C)[C@@H](N[*:1])[C@@H](O)CC(=O)O[C@H](C(=O)[C@H](C)C(=O)[*:2])C(C)C; NMeY = CN[C@@H](Cc1ccc(O)cc1)C(=O)O; dNMeL = CN[C@H](CC(C)C)C(=O)O; Pyruvoyl = CC(=O)C(=O)*
# Assays:
# TGEV [1] = assay: Quantitation of TGEV-induced cell death in ST cells by real-time automated microscopy (Cytotox); type: cell-based, transmissible gastroenteritis virus (TGEV); details: for activity against TGEV (reversion of TGEV-induced cell death): MOI 0.01, 48 h, result in words; for EC50: read-out: EC50 on TGEV-induced cell death; for bottom plateau, dead cells: TGEV MOI 0.01, 48 h, dose-response fit
# SARS-CoV-2 [2] = details: White et al. 2021; result in words; cited from earlier work
# in vitro [3] = details: african green monkey, veroe6 cells
# A549 human lung cells = details: MTT, 0.2 µM to 50 µM
# SARS-CoV-2 [4] = assay: SARS-CoV-2 infection quantified by immunofluorescence (flow cytometry) in A549 cells; type: cell-based
# Experimental: The activity of SPL-0 against SARS-CoV-2 was determined in A549 human lung cells, which provide a biologically relevant model, since that lungs are a primary target of SARS-CoV-2. For this, a dose-response assay was performed in the range of 0.2 µM to 50 µM. Cell cultures were inoculated with SARS-CoV-2 at an MOI of 0.01 infectious particles per cell and analyzed after 72 h. The percentage of infected cells was obtained by flow cytometry using a monoclonal antibody against the virus spike protein S as well as a fluorescently labelled secondary antibody (immunofluorescence). The percentage of infected cells decreased as the SPL-0 increased (Figure 9a). […] In addition, for each dose, cell viability assays were performed in the absence of virus. For this, the MTT assay was used.
# TGEV [5] = assay: TGEV viral titration by plaque assay in ST cells; type: cell-based, transmissible gastroenteritis virus (TGEV)
# Experimental: ST cells were inoculated with TGEV at a MOI of 0.01 infectious particles per cell and, after 24 h of incubation under standard culture conditions, the culture medium was subjected to the plaque assay, which determines the number of viral infectious particles present per volume unit (viral titer). A range of SPL-0 concentrations was tested in order to obtain a dose-response curve. The TGEV titer in the harvested medium decreased as the SPL-0 dose increased (Figure 6).
# swine testis (ST) cells = details: dose range 2-100 µM
# SARS-CoV-2 [6] = assay: SARS-CoV-2 infection quantified by immunofluorescence (flow cytometry) in VeroE6 cells; type: cell-based
# Experimental: To determine the activity of SPL-0 against SARS-CoV-2, a dose-response assay was performed in the range of 0.2 µM to 50 µM using VeroE6 kidney cells from African green monkey (Cercopithecus aethiops). Cell cultures were inoculated with SARS-CoV-2 at an MOI of 0.01 infectious particles per cell and analyzed after 48 h. The percentage of infected cells was obtained by flow cytometry using a monoclonal antibody against the virus spike protein S as well as a fluorescently labelled secondary antibody (immunofluorescence). The percentage of infected cells decreased as the SPL-0 increased (Figure 8a). […] In addition, for each dose, cell viability assays were performed in the absence of virus. For this, the MTT assay, a standard procedure for determining cell metabolic activity, was used.
# VeroE6 kidney cells = details: MTT, 0.2 µM to 50 µM
# OC43 = OC43 RNA quantitation by RT-qPCR in BHK-21 cells; type: cell-based, human coronavirus OC43
# in vitro [7] = details: pig, st cells
# MHV = MHV RNA quantitation by RT-qPCR in CCL9.1 cells; type: cell-based, murine hepatitis virus (MHV)
# TGEV [8] = assay: TGEV RNA quantitation by RT-qPCR in ST cells; type: cell-based, transmissible gastroenteritis virus (TGEV)
# Experimental: ST cells were inoculated with TGEV at a MOI of 0.01 infectious particles per cell and, after 24 h of incubation under standard culture conditions, total RNA was extracted and TGEV RNA was quantified by RT-qPCR. A range of SPL-0 concentrations was tested in order to obtain a dose-response curve. The amount of TGEV RNA decreased as the SPL-0 dose increased (Figure 7).
# in vitro [9] = details: human, a549 cells
# CVB3 = CVB3 viral titration by plaque assay in HeLa cells; type: cell-based, coxsackievirus B3 (CVB3)
# Experimental: CVB3 belongs to the picornavirus family. […] Coronaviruses and picornaviruses share certain broad features. Both are plus-strand RNA viruses. However, they are otherwise largely unrelated virus groups. The effect of SPL-0 on CVB3 infection was determined in human HeLa cells. HeLa cells were inoculated with CVB3 at a MOI of 0.01 infectious particles per cell and, after 24 h of incubation under standard culture conditions, the medium was subjected to the plaque assay, which determines the number of viral infectious particles present per volume unit (viral titer). A range of SPL-0 concentrations was to obtain a dose-response curve. The CVB3 titer in the harvested medium decreased as the SPL-0 dose increased (Figure 10). […] Therefore, the antiviral action of SPL-0 extends beyond coronaviruses.
# [10] = Alphacoronavirus 1, ST cells, MOI 0.01, 48 h after viral inoculation
# [11] = relative to untreated control, dose-response fit
structure (smiles),measurement,setting,value
C[C@@H]1O[C@@H](Cc2ccccc2)CC1[Si](C)(C)C (some centres unmarked) [SPL-5],activity against TGEV (reversion of TGEV-induced cell death),TGEV [1]; ST cells,did not revert TGEV-induced cell death; also recorded: Inactive
"CC[C@H](C)[C@H]1NC(=O)[C@@H](NC(=O)[C@@H](CC(C)C)N(C)C(=O)[C@@H]2CCCN2C(=O)C(C)=O)[C@@H](C)OC(=O)[C@H](Cc2ccc(OC)cc2)N(C)C(=O)[C@@H]2CCCN2C(=O)[C@H](CC(C)C)NC(=O)[C@@H](C)C(=O)[C@H](C(C)C)OC(=O)C[C@@H]1O [Aplidin, plitidepsin] (Pyruvoyl-P[dNMeL]T[X1]LP[NMeY](Me); ester 3-C)",in vitro activity against SARS-CoV-2,SARS-CoV-2 [2],potent in vitro activity
C[C@H]1OC[C@@H](c2ccccc2)[C@H]1[Si](c1ccccc1)(c1ccccc1)c1ccccc1 [SPL-4],EC50,TGEV [1]; [10],15.8 µM
same,activity against TGEV (reversion of TGEV-induced cell death),TGEV [1]; ST cells,partially reverts TGEV-induced cell death; also recorded: Active
same,"bottom plateau, dead cells",TGEV [1]; ST cells,11.4%
CC(C)C[C@H]1C[C@@H]([Si](c2ccccc2)(c2ccccc2)c2ccccc2)[C@H](CCCCl)O1 [SPL-6],EC50,TGEV [1]; [10],30.5 µM
same,activity against TGEV (reversion of TGEV-induced cell death),TGEV [1]; ST cells,partially reverts TGEV-induced cell death; also recorded: Active
same,"bottom plateau, dead cells",TGEV [1]; ST cells,14.8%
C[C@@H]1O[C@@H](Cc2ccccc2)CC1[Si](c1ccccc1)(c1ccccc1)c1ccccc1 (some centres unmarked) [SPL-0],EC50,"TGEV [1]; Alphacoronavirus 1, 48 h",13.1 µM
same,activity against TGEV (reversion of TGEV-induced cell death),TGEV [1]; ST cells,partially reverts TGEV-induced cell death; also recorded: Active
same,"bottom plateau, dead cells",TGEV [1]; ST cells,16.1%
same,CC50 at 48 h,in vitro [3],> 50 µM
same,cytotoxic effects,"A549 human lung cells; A549 cells, result in words",no cytotoxic effects
same,percentage of viable cells at 48 h,A549 human lung cells; uninfected A549 cells,> 89% and 89.0-100%
same,"estimated bottom plateau, infected cells","SARS-CoV-2 [4]; A549 cells, dose-response fit",-0.37%
same,EC50,"SARS-CoV-2 [4]; Severe acute respiratory syndrome coronavirus 2, A549, immunofluorescence, MOI 0.01, 72 h, read-out: EC50 against SARS-CoV-2 in A549 cells",12.9 µM
same,EC50,"TGEV [5]; Alphacoronavirus 1, viral titration (plaque assay), ST cells, MOI 0.01, 24 h, read-out: EC50 against TGEV",15.6 µM
same,"bottom plateau, estimated viral titer",TGEV [5]; [11],0%
same,percentage of dead cells at 48 h,swine testis (ST) cells; ST cell cultures not inoculated with TGEV,< 12% and 2.5-12.0%
same,cytotoxic effects,"swine testis (ST) cells; ST cells, no virus, result in words",no detectable cytotoxic effects
same,EC50,"SARS-CoV-2 [6]; Severe acute respiratory syndrome coronavirus 2, Vero C1008, immunofluorescence, MOI 0.01, 48 h, read-out: EC50 against SARS-CoV-2 in VeroE6 cells",27.5 µM
same,"bottom plateau, infected cells","SARS-CoV-2 [6]; VeroE6 cells, dose-response fit",1.6%
same,percentage of viable cells at 48 h,VeroE6 kidney cells; uninfected VeroE6 cells,> 85% and 85.0-93.3%
same,cytotoxic effects,"VeroE6 kidney cells; VeroE6 cells, result in words",no cytotoxic effects
same,"amount of OC43 RNA, % of the amount obtained in control cultures receiving no drug","OC43; 20 µM, MOI 0.01, 4 days",4.16 ± 0.95%
same,EC50,"OC43; Betacoronavirus 1, OC43, RT-qPCR, inferred from single dose 20 µM, read-out: EC50 against OC43",< 20 µM
same,CC50 at 48 h,in vitro [7],> 100 µM
same,"amount of MHV RNA, % of the amount obtained in control cultures receiving no drug","MHV; 20 µM, MOI 0.01, 24 h",17.0 ± 2.4%
same,EC50,"MHV; Murine coronavirus, RT-qPCR, inferred from single dose 20 µM, read-out: EC50 against MHV",< 20 µM
same,EC50,"TGEV [8]; Alphacoronavirus 1, RT-qPCR, ST cells, MOI 0.01, 24 h, read-out: EC50 against TGEV",4.35 µM
same,"bottom plateau, viral RNA",TGEV [8]; [11],0%
same,CC50 at 48 h,in vitro [9],> 50 µM
same,EC50,"CVB3; Enterovirus B, CVB3, viral titration (plaque assay), HeLa cells, MOI 0.01, 24 h, read-out: EC50 against CVB3",2.95 µM
same,"bottom plateau, estimated viral titer",CVB3; [11],0%
"CCCCCCCCCC[C@H]1CC([Si](c2ccccc2)(c2ccccc2)c2ccccc2)[C@H](C)O1 (stereo partly drawn) [SPL-1, 2,5-trans-(5-decyl-2-methyltetrahydrofuran-3-yl)triphenylsilane]",activity against TGEV (reversion of TGEV-induced cell death),TGEV [1]; ST cells,did not revert TGEV-induced cell death; also recorded: Inactive
